Results on 20 molecules are retold here after patent US12583818B2 (DAEGU-GYEONGBUK MEDICAL INNOVATION FOUNDATION, priority 2020, dated 2026).

Where two headings read alike, the source gives them in different places.

One assay deals with T1, Pin1 (Homo sapiens, UniProt Q13526).
T1 construct: purchased Anaspec
Briefly: Evaluation of Pin1 enzyme inhibitory activity (Sensolyte Green Pin1 assay kit). The class given is biochemical. The procedure, abridged: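 Pin1 activity was measured with a fluorogenic kit assay (Sensolyte Green) using substrate prepared at 1 μM and protein at 50 μg/ml, both pre-mix concentrations. Compound working solutions were 100, 10, 1 or 0.1 μM, and reactions ran 2 h at room temperature in the dark, read at 490/520 nm. Inhibition was graded A–D by concentration.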

The test system of assay [1] is A2780-SP cells (ovarian cancer stem cells). Briefly: Sphere cell viability of A2780-SP cells (Cell-titer Glo). The class given is cell-based. The procedure:
(§1) In order to confirm the inhibitory effect of the compound represented by formula 1 according to the present invention on the growth of MCF7, MCF7-SP, A2780 or A2780-SP cells, the following experiment was performed, and the results are shown in Tables 4 and 5 below.
On the other hand, A2780-SP cells (ovarian cancer stem cells) were plated in an Ultra-Low Attachment round bottom 96-well plate (corning) at the density of 1,500 viable cells per well, and cultured in cancer stem cell medium. The cancer stem cell medium is composed of the neurobasal medium supplemented with 20 ng/ml of bFGF, 10 ng/ml of EGF, […] of amphotericin B, HEPES, Glutamax and B27.
On the next day of culture, the cells were treated with the compound of Examples 57, and 69 to 144, followed by culture for 8 days. The medium containing the compound was added thereto once again on the 4th day. Sphere cell viability was evaluated by Cell-titer Glo (Promega, WC, USA), and luciferase activity was detected using a Tecan plate reader (Biocompare, USA).

Assay [2] has as its system A2780 cells (ovarian cancer cells). Briefly: Cell viability of A2780 cells (Cell-titer Glo). The class given is cell-based. To be noted: Homo sapiens. The procedure:
as §1
In addition, A2780 cells (ovarian cancer cells) were plated in a 96-well plate at the density of 3000 viable cells per well, and cultured in RPMI-1640 medium supplemented with 10% FBS and 1% penicillin/streptomycin.
On the next day of culture, the cells were treated with the compound of Examples 57, and 69 to 144, followed by culture for 3 days. Cell viability was evaluated by Cell-titer Glo (Promega, WC, USA), and luciferase activity was detected using a Tecan plate reader (Biocompare, USA).

Setting [3] is: concentration at which the Pin1 enzyme activity is inhibited, 2 hours at room temperature, fluorescence 490 nm/520 nm, read-out: Pin 1 inhibition.
[4] abbreviates: 192 h, sphere cell viability, culture for 8 days, read-out: A2780-SP.
Where [5] appears, read: 72 h, cell viability, culture for 3 days, read-out: A2780.
The mark [6] stands for this setting: Table 2, read-out: concentration at which Pin1 inhibitory activity was exhibited.
Where [7] appears, read: Table 5, read-out: the concentration (second list of b710, cell line not named; matches A2780-SP column).
The mark [8] stands for this setting: A2780, Table 5, read-out: A2780 cell concentration.

T1 sequence (Q13526 whole entry): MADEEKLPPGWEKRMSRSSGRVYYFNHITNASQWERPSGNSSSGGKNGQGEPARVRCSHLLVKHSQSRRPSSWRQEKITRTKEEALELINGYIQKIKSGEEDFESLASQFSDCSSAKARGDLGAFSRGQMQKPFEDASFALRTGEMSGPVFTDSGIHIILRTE

`O=S(=O)(NCCCc1c[nH]c2ccc(Cl)cc12)c1cccc(OCCCN2CCCCC2)c1` [Example 95, N-(3-(5-chloro-1H-indol-3-yl)propyl)-3-(3-(piperidin-1-yl)propoxy)benzenesulfonamide]: the IC50 on Pin1 (setting [3]) is 1 to 10 µM; in assay [1] (setting [4]) it was 1 to 10 µM; in assay [2] (setting [5]), greater than 10 µM.

As to `O=S(=O)(NCCCc1c[nH]c2ccc(Cl)cc12)c1ccc(OCCCN2CCCC2)cc1` [Example 100, N-(3-(5-chloro-1H-indol-3-yl)propyl)-4-(3-(pyrrolidin-1-yl)propoxy)benzenesulfonamide], the IC50 at Pin1 (setting [6]) is less than 1 µM; at Pin1 (setting [3]) it was less than 1 µM; in assay [1] (setting [4]) it was less than 1 µM; in assay [1] (setting [7]), less than 1 µM; in assay [2] (setting [5]), 1 to 10 µM; in assay [2] (setting [8]), less than 10 µM.

Take `C[C@@H]1CN(CCCOc2ccc(S(=O)(=O)NCCCc3c[nH]c4ccc(Cl)cc34)cc2)CCN1` [Example 108, (R)—N-(3-(5-chloro-1H-indol-3-yl)propyl)-4-(3-(3-methylpiperazin-1-yl)propoxy)benzenesulfonamide]: the IC50 at Pin1 (setting [6]) is less than 1 µM; at Pin1 (setting [3]) it was less than 1 µM; in assay [1] (setting [4]), less than 1 µM; in assay [1] (setting [7]), less than 1 µM; in assay [2] (setting [5]), 1 to 10 µM; in assay [2] (setting [8]) it was less than 10 µM.

On to `C[C@H]1CN(CCCOc2ccc(S(=O)(=O)NCCCc3c[nH]c4ccc(Cl)cc34)cc2)CCN1` [Example 109, (S)—N-(3-(5-chloro-1H-indol-3-yl)propyl)-4-(3-(3-methylpiperazin-1-yl)propoxy)benzenesulfonamide], for which the IC50 on Pin1 (setting [6]) was less than 1 µM; on Pin1 (setting [3]), less than 1 µM; in assay [1] (setting [4]), less than 1 µM; in assay [1] (setting [7]), less than 1 µM; in assay [2] (setting [5]), 1 to 10 µM; in assay [2] (setting [8]), less than 10 µM.

On to `C[C@@H]1CN(CCCOc2ccc(S(=O)(=O)NCCCc3c[nH]c4ccc(Cl)cc34)cc2)C[C@H](C)N1` [Example 110, N-(3-(5-chloro-1H-indol-3-yl)propyl)-4-(3-((3S,5R)-3,5-dimethylpiperazin-1-yl)propoxy)benzenesulfonamide], for which the IC50 on Pin1 (setting [3]) is 1 to 10 µM; in assay [1] (setting [4]) it was less than 1 µM; in assay [1] (setting [7]), less than 1 µM; in assay [2] (setting [5]) it was greater than 10 µM.

Take `C[C@H]1CN(CCCOc2ccc(S(=O)(=O)NCCCc3c[nH]c4ccc(Cl)cc34)cc2)CCN1C` [Example 111, (S)—N-(3-(5-chloro-1H-indol-3-yl)propyl)-4-(3-(3,4-dimethylpiperazin-1-yl)propoxy)benzenesulfonamide]: the IC50 on Pin1 (setting [3]) is 1 to 10 µM; in assay [1] (setting [4]) it was less than 1 µM; in assay [1] (setting [7]), less than 1 µM; in assay [2] (setting [5]) it was greater than 10 µM.

In the case of `CN1CCN(CCCCc2ccc(S(=O)(=O)NCCCc3c[nH]c4ccc(Cl)cc34)cc2)CC1` [Example 112, N-(3-(5-chloro-1H-indol-3-yl)propyl)-4-(4-(4-methylpiperazin-1-yl)butyl)benzenesulfonamide], the IC50 at Pin1 (setting [6]) was less than 1 µM; on Pin1 (setting [3]), less than 1 µM; in assay [1] (setting [4]), less than 1 µM; in assay [1] (setting [7]), less than 1 µM; in assay [2] (setting [5]), greater than 10 µM.

Take `CN1CCN(c2cc(Oc3ccc(S(=O)(=O)NCCCc4c[nH]c5ccc(Cl)cc45)cc3)cc(N3CCN(C)CC3)c2)CC1` [Example 130, 4-(3,5-bis(4-methylpiperazine-1-yl)phenoxy)-N-(3-(5-chloro-1H-indole-3-yl)propyl)benzenesulfonamide]: the IC50 is less than 1 µM on Pin1 (setting [6]); less than 1 µM at Pin1 (setting [3]); 1 to 10 µM in assay [1] (setting [4]); 1 to 10 µM in assay [2] (setting [5]); less than 10 µM in assay [2] (setting [8]).

Regarding `CN1CCN(c2ccnc(Nc3ccc(S(=O)(=O)NCCCc4c[nH]c5ccc(Cl)cc45)cc3)c2)CC1` [Example 133, N-(3-(5-chloro-1H-indol-3-yl)propyl)-4-((4-(4-methylpiperazin-1-yl)pyridin-2-yl)amino)benzenesulfonamide], the IC50 on Pin1 (setting [6]) was less than 1 µM; at Pin1 (setting [3]), less than 1 µM; in assay [1] (setting [4]), 1 to 10 µM; in assay [2] (setting [5]) it was greater than 10 µM.

Consider `O=S(=O)(NCCCc1c[nH]c2ccc(Cl)cc12)c1ccc(Nc2cc(N3CCNCC3)ccn2)cc1` [Example 134, N-(3-(5-chloro-1H-indol-3-yl)propyl)-4-((4-(piperazin-1-yl)pyridin-2-yl)amino)benzenesulfonamide], for which the IC50 at Pin1 (setting [6]) is less than 1 µM; at Pin1 (setting [3]), less than 1 µM; in assay [1] (setting [4]), less than 1 µM; in assay [1] (setting [7]), less than 1 µM; in assay [2] (setting [5]), greater than 10 µM.

`CN1CCN(c2cc(F)cc(Oc3ccc(S(=O)(=O)NCCCc4c[nH]c5ccc(Cl)cc45)cc3)c2)CC1` [Example 137, N-(3-(5-chloro-1H-indol-3-yl)propyl)-4-(3-fluoro-5-(4-methylpiperazin-1-yl)phenoxy)benzenesulfonamide]: the IC50 at Pin1 (setting [6]) is less than 1 µM; at Pin1 (setting [3]) it was less than 1 µM; in assay [1] (setting [4]) it was 1 to 10 µM; in assay [2] (setting [5]), greater than 10 µM.

In the case of `CN1CCN(c2cc(Br)cc(Oc3ccc(S(=O)(=O)NCCCc4c[nH]c5ccc(Cl)cc45)cc3)c2)CC1` [Example 138, N-(3-(5-chloro-1H-indole-3-yl)propyl)-4-(3-bromo-5-(4-methylpiperazine-1-yl)phenoxy)benzenesulfonamide], the IC50 on Pin1 (setting [6]) was less than 1 µM; on Pin1 (setting [3]), less than 1 µM; in assay [1] (setting [4]), 1 to 10 µM; in assay [2] (setting [5]), greater than 10 µM.

On to `CN1CCN(c2cc(Cl)nc(Nc3ccc(S(=O)(=O)NCCCc4c[nH]c5ccc(Cl)cc45)cc3)c2)CC1` [Example 140, N-(3-(5-chloro-1H-indol-3-yl)propyl)-4-((6-chloro-4-(4-methylpiperazin-1-yl)pyridin-2-yl)amino)benzenesulfonamide], for which the IC50 at Pin1 (setting [6]) was less than 1 µM; on Pin1 (setting [3]), less than 1 µM; in assay [1] (setting [4]) it was 1 to 10 µM.

As for `CN1CCN(c2cc(Nc3ccc(S(=O)(=O)NCCCc4c[nH]c5ccc(Cl)cc45)cc3)nc(N3CCN(C)CC3)c2)CC1` [Example 141, 4-((4,6-bis(4-methylpiperazin-1-yl)pyridin-2-yl)amino)-N-(3-(5-chloro-1H-indol-3-yl)propyl)benzenesulfonamide], the IC50 was less than 1 µM at Pin1 (setting [6]), less than 1 µM at Pin1 (setting [3]) and 1 to 10 µM in assay [1] (setting [4]).

Consider `CN1CCN(CCCOc2ccc(C(=O)NCCCc3c[nH]c4ccc(Cl)cc34)cc2)CC1` [Example 143, N-(3-(5-chloro-1H-indole-3-yl)propyl)-4-(3-(4-methylpiperazine-1-yl)propoxy)benzamide], for which the values for the IC50 (on Pin1 (setting [6]); on Pin1 (setting [3]); in assay [1] (setting [4])) were less than 1 µM, less than 1 µM and 1 to 10 µM, respectively.

`CS(=O)(=O)CCCOc1ccc(S(=O)(=O)NCCCc2c[nH]c3ccc(Cl)cc23)cc1` [Example 145, N-(3-(5-chloro-1H-indol-3-yl)propyl)-4-(3-(methylsulfonyl)propoxy)benzenesulfonamide]: the IC50 on Pin1 (setting [6]) was less than 1 µM; at Pin1 (setting [3]) it was less than 1 µM; in assay [1] (setting [4]), greater than 10 µM; in assay [2] (setting [5]) it was greater than 10 µM.

Regarding `O=S(=O)(NCCCc1c[nH]c2ccc(Cl)cc12)c1cnc(NCCCN2CCNCC2)s1` [Example 146, N-(3-(5-chloro-1H-indole-3-yl)propyl)-2-((3-(piperazine-1-yl)propyl)amino)thiazole-5-sulfonamide], the IC50 is less than 1 µM on Pin1 (setting [6]), less than 1 µM on Pin1 (setting [3]), 1 to 10 µM in assay [1] (setting [4]) and greater than 10 µM in assay [2] (setting [5]).

`Cc1[nH]c2ccc(Cl)cc2c1CCCNS(=O)(=O)c1ccc(OCCCN2CCN(C)CC2)cc1` [Example 147, N-(3-(5-chloro-2-methyl-1H-indole-3-yl)propyl)-4-(3-(4-methylpiperazine-1-yl)propoxy)benzenesulfonamide]: the IC50 on Pin1 (setting [6]) was less than 1 µM; at Pin1 (setting [3]), less than 1 µM; in assay [1] (setting [4]) it was greater than 10 µM; in assay [2] (setting [5]), greater than 10 µM.

On to `O=S(=O)(NCCCc1c[nH]c2ccc(Cl)cc12)c1ccc(CCCCn2ccnc2)cc1` [Example 148], for which the IC50 was less than 1 µM at Pin1 (setting [6]), less than 1 µM on Pin1 (setting [3]), 1 to 10 µM in assay [1] (setting [4]) and greater than 10 µM in assay [2] (setting [5]).

On to `CN1CCN(CCCOc2ccc(S(=O)(=O)Nc3ccccc3Cc3c[nH]c4ccc(Cl)cc34)cc2)CC1` [Example 149, N-(2-((5-chloro-1H-indole-3-yl)methyl)phenyl)-4-(3-(4-methylpiperazine-1-yl)propoxy)benzenesulfonamide], for which the IC50 at Pin1 (setting [6]) was less than 1 µM; on Pin1 (setting [3]), less than 1 µM; in assay [1] (setting [4]), greater than 10 µM; in assay [2] (setting [5]) it was greater than 10 µM.
